The record followed here is patent publication EP1007514B1, “HETEROCYCLIC KETONES AS NPY Y5 ANTAGONISTS” (BAYER CORPORATION, priority 1997, dated 1999).

Test [1] addresses T1, human NPY Y1 receptor subtype (Homo sapiens, UniProt P25929).
T1 construct: host or cells: SK-N-MC cells
T1 sequence (P25929 1-384): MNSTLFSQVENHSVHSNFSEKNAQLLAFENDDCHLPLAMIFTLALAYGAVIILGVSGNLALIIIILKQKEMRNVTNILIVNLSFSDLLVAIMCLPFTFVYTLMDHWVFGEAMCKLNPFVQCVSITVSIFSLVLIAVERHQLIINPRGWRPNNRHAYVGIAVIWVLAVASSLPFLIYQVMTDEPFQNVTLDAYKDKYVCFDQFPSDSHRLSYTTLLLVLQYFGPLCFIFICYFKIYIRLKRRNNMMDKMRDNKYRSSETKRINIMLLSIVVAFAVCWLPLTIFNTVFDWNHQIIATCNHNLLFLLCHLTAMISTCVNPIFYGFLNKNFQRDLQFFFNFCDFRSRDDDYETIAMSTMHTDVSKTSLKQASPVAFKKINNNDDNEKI
In words: NPY Y1 receptor binding, [125I]PYY on SK-N-MC cells. The settings on record: test compounds at 5 µM final concentration, [125I]PYY about 50 pM, read-out: IC50 (µM) NPY receptor indicated hY1. The method, then:
For instance, test compounds antagonistic to human NPY Y1 receptor subtype can be identified by a modified method of Gordon et al., J. Neurochem. 55:506-513,(1990), wherein SK-N-MC cells (ATCC, Rockville, ND) are plated in 24-well plates. Once confluent, the cells are rinsed with Dulbecco's phosphate buffered saline (DPBS). Cells are then preincubated in binding buffer containing serum-free DMEM, 25 mM HEPES (pH 7.3), 0.5% bovine serum albumin (BSA), 0.1% bacitracin and 0.1mM phenylmethylsulfonyl fluoride for 30 minutes at room temperature. Test compounds at a final concentration of 5 µM, and [^125I] PYY (about 50 pM:NEN-DuPont) are added to the wells, and the cells are incubated for an additional 3 hours at room temperature, followed by rinsing with ice-cold DPBS. Nonspecific binding is defined with 1 µM NPY. After lysing the cells with 1% Triton X-100, the amount of radioactivity in the lysates is quantitated with a gamma counter.

The target in the next test is T2, human NPY Y2 (Homo sapiens, UniProt P49146).
T2 sequence (P49146 1-381): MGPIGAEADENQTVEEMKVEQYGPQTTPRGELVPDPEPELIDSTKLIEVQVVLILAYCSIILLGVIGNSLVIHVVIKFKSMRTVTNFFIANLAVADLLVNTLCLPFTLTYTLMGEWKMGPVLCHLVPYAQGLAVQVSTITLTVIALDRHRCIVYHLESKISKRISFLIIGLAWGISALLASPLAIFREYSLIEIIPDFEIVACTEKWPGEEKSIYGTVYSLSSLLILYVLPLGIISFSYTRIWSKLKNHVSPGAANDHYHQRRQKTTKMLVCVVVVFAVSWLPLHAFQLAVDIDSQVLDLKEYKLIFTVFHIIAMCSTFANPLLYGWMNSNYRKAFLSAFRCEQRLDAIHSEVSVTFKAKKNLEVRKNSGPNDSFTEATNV
In words: NPY Y2 receptor membrane binding, [125I]PYY. To be noted: membrane protein; 25 pM [125I]PYY; test compounds at 5 µM final concentration; read-out: IC50 (µM) NPY receptor indicated hY2. On the procedure: Assays to determine binding affinity for human NPY Y2 and Y4/PP1 receptor subtypes are performed on GF/C Millipore 96-well plates pretreated with 0.02% polyethylenimine. […] Samples consist of membrane protein, 25 pM [^125I]PYY and test compounds at 5 µM final concentration. Nonspecific binding is defined by 1 µM NPY. The binding buffer for human Y4/PP1 binding consists of 137 mM NaCl, 5.4 mM KCl, 0.44 mM KH2PO4, 1.26 mM CaCl2, 0.81 mM MgSO4, 20 mM HEPES, 1 mM dithiothreitol, 0.1% bacitracin, 100 mg/l streptomycin sulfate, 1 mg/l aprotinin, 10 mg/ml soybean trypsin inhibitor and 0.3% BSA, pH 7.4. Samples consist of membrane protein, 50 pM human [^125I] human PP (hPP:NEN DuPont, Boston MA) and test compounds diluted to a final concentration of 5 µM. One µM hPP is used to define nonspecific binding. After a 2 hour incubation at room temperature with constant mixing, the samples are aspirated on a vacuum manifold, and rinsed with ice-cold binding buffer. The amount of radioactivity in each well is quantitated with either gamma counting or liquid scintillation.

Test [2] has as its target T3, human NPY Y5 receptor subtype (Homo sapiens, UniProt Q15761).
T3 sequence (Q15761 1-445): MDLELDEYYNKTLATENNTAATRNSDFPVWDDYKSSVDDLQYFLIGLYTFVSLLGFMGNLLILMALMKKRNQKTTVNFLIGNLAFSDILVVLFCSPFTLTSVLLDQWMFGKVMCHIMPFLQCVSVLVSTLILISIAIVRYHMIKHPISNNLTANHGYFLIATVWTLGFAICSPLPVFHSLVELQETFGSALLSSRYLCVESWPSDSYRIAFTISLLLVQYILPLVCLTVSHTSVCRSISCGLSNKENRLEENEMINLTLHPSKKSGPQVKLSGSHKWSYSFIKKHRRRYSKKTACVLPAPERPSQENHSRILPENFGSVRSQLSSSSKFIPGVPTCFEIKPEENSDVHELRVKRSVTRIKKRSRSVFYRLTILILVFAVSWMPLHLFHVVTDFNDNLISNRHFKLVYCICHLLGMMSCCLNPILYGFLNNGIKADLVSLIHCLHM
The experiment in a line: NPY Y5 receptor membrane binding, [125I]PYY (human). The settings on record: membrane protein; 75-100 pM [125I]PYY; 50% inhibition of specific binding; read-out: IC50 (µM) NPY receptor indicated hY5. On the procedure:
Assays to determine human and rat NPY Y5 receptor subtype binding affinity are performed on GF/C Millipore 96-well plates pretreated with 0.02% polyethylenimine. The binding buffer is 25 mM Tris, 120 mM NaCl, 5 mM KCl, 1.2 mM KH2PO4, 2.5 mM CaCl2, 1.2 mM MgSO4, 0.1% BSA and 0.5 mg/ml bacitracin, pH 7.4. Samples consist of membrane protein, 75-100 pM [^125I] PYY (porcine, NEN-DuPont) and test compounds diluted in binding buffer. Nonspecific binding is defined by 1 µM PYY. After a 2 hour incubation at room temperature with constant mixing, the samples are aspirated on a vacuum manifold and rinsed with ice-cold binding buffer. The amount of radioactivity in each well is quantitated with either gamma counting or liquid scintillation. IC50 values, which correspond to 50% inhibition of specific binding, are determined with non-linear regression analysis.

One may read the IC50 as the concentration that inhibits the measured activity by half. As to `Cc1ccc(SCC(C(=O)c2ncc[nH]2)c2ccccc2)cc1` (stereo not drawn) [Compound 2, (1H-Imidazol-2-yl)-2-phenyl-3-p-tolylsulfanyl-propan-1-one], the IC50 in test [1] is more than 5 µM; at human NPY Y2, more than 5 µM; in test [2], 0.83 µM.

In the case of `Cc1ccc(S(=O)(=O)CC(C(=O)c2nc3ccccc3s2)c2ccccc2)cc1` (stereo not drawn) [Compound 6, 1-Benzothizol-2-yl-2-phenyl-3-(toluene-4-sulfonyl)-propan-1-one], the IC50 in test [1] is more than 5 µM; on human NPY Y2 it was more than 5 µM; in test [2] it was 8.8 µM.

On to `Cc1ccc(S(=O)(=O)CC(C(=O)c2nc3cc(C)c(C)cc3[nH]2)c2ccccc2)cc1` (stereo not drawn) [Compound 7, (5,6-Dimethyl-1H-benzoimidazol-2-yl)-2-phenyl-3-(toluene-4-sulfonyl)-propan-1-one], for which the values for the half-inhibitory concentration (IC50) (in test [1]; on human NPY Y2; in test [2]) were more than 5 µM, 8.3 µM and 0.06 µM, respectively.

With `O=C(c1nc2ccccc2[nH]1)C(CS(=O)(=O)c1ccccc1)c1ccccc1` (stereo not drawn) [Compound 8, 3-Benzenesulfonyl-1-(1H-benzoimidazol-2-yl)-2-phenyl-propan-1-one], the half-inhibitory concentration (IC50) is more than 5 µM in test [1], more than 5 µM at human NPY Y2 and 0.022 µM in test [2].

Regarding `COc1ccc(S(=O)(=O)CC(C(=O)c2nc3ccccc3[nH]2)c2ccccc2)cc1` (stereo not drawn) [Compound 10, 1-(1H-Benzoimidazol-2-yl)-3-(4-methoxy-benzenesulfonyl)-2-phenyl-propan-1-one], the half-maximal inhibitory concentration (IC50) is more than 5 µM in test [1], more than 5 µM at human NPY Y2 and 0.011 µM in test [2].

On to `COc1ccc2[nH]c(C(=O)C(CS(=O)(=O)c3ccc(C)cc3)c3ccccc3)nc2c1` (stereo not drawn) [Compound 14, 1-(5-Methoxy-1H-benzoimidazol-2-yl)-2-phenyl-3-(toluene-4-sulfonyl)-propan-1-one], for which the IC50 in test [1] was more than 5 µM; on human NPY Y2, more than 5 µM; in test [2] it was 0.08 µM.
